Source: patent US20190282673A1, “STAPHTAME ACTIVITY ON BIOFILMS” (priority 2016, published 2019)
Where two headings read alike, the source gives them in different places.

Columns and labels:
S. aureus = experiment: MIC and checkerboard synergy (broth microdilution) on planktonic cells; format: cell-based, Staphylococcus aureus; conditions: for MIC: Staphylococcus aureus, read-out: MIC (drug alone)
Procedure: MIC was determined using a modified Clinical and Laboratory Standards Institute (CLSI) broth microdilution procedure described earlier in Vipra, et al. (2012) “Antistaphylococcal activity of bacteriophage derived chimeric protein P128” BMC Microbiol. 12:41-50; and Clinical and Laboratory Standards Institute (2012) “Methods for Dilution Antimicrobial Susceptibility Tests for Bacteria That Grow Aerobically; Approved Standard” CLSI document M07-A9.9 ed. Wayne, Pa. USA. In order to determine effects of combinations of P128 with antibiotics, combinations of various dilutions of P128 and a second drug were tested for growth inhibition using a microdilution checkerboard technique. See Lu, et al. (2013) “In vitro activity of sodium new houttuyfonate alone and in combination with oxacillin or netilmicin against methicillin-resistant Staphylococcus aureus” PLoS One 8:e68053. Briefly, S. aureus culture at a final cell number of 5×10^5 CFU/mL was added to wells of 96-well microtiter plates (precoated with 0.5% BSA), containing two-fold dilutions of P128 and the second drug in cation adjusted Mueller Hinton Broth (CAMHB). The plates were incubated at 37° C. for 24 h and the individual MICs and the combination MICs were read. The fractional inhibitory concentration index (FICI) was determined using the following equation: FICI=(MIC of drug A in the combination/MIC of drug A alone)+(MIC of drug B in the combination/MIC of drug B alone). The combination was considered to be synergistic when the FICI was ≤0.5; additive when FICI was 0.5-1.0; indifferent when FICI was 1-4 and antagonistic when FICI≥4. The experiments were performed in triplicate and repeated twice.
In order to find out whether P128 can act in a synergistic manner with commonly used antibiotics, MIC based growth inhibition assays were performed. MIC based synergy was studied by checkerboard method by determining the FIC index using the method of Lu, et at (2013) “In vitro activity of sodium new houttuyfonate alone and in combination with oxacillin or netilmicin against methicillin-resistant Staphylococcus aureus” PLoS One 8:e68053. […] Similarly.
(§1) Bacterial cultures at a final cell number of 5×10^5 CFU/mL was added to wells of 96-well microtiter plates (precoated with 0.5% BSA), containing two-fold dilutions of P128 and the second drug in cation adjusted Mueller Hinton Broth (CAMHB). The plates were incubated at 37° C. for 24 h and the individual MICs and the combination MICs were read. The fractional inhibitory concentration index (FICI) was determined using the following equation: FICI=(MIC of drug A in the combination/MIC of drug A alone)+(MIC of drug B in the combination/MIC of drug B alone). The combination was considered to be synergistic when the FICI was ≤0.5; additive when FICI was 0.5-1.0; indifferent when FICI was 1-4 and antagonistic when FICI≥4.

S. aureus biofilms = experiment: MBIC and checkerboard synergy on preformed biofilm (MTT assay); format: cell-based, Staphylococcus aureus
Procedure: […] LB supplemented with 50 μg/mL CaCl2 was used for daptomycin treatment wells. The contents of the well was aspirated out and discarded. The biofilm adhered to the wells was quantified by MTT assay as described above. The MBIC was defined as the minimum concentration of P128 or the drug showing no colour development. […] In each experiment, in addition to the combination MBIC, the MBIC of each drug was also determined individually. The fractional MBIC concentrations were determined by MTT dye method as described above. The FICI and synergy was also calculated in a similar manner.
The ability of P128 to inhibit growth of S. aureus in a preformed biofilm was measured by determining minimum biofilm inhibition concentration (MBIC), defined as minimum concentration showing growth inhibition in a MTT based assay. […] 11:226.
The assay was optimized using the standard S. aureus strain ATCC 29213. An overnight-grown culture of the strain was diluted 1:40 in LB broth 200 μL of diluted culture was aliquoted into microtiter plate wells. Microplates were placed in a shaker-incubator set to 37° C., and 100 rpm for 24 h followed by 48 h incubation under static conditions at 37° C. The contents of one set of four wells were aspirated and discarded. Wells were washed twice with 1×PBS and the presence of biofilm in the wells at the end of this 72-hour period was determined by metabolic dye-reduction assay method using MTT (3-(4, 5-dimethylthiazol-5-diphenyltetrazolium bromide; Himedia). In this assay, live cells reduce the dye leading to color formation which can be read at 570 nm, and the intensity of color can be correlated to number of live cells. 100 μL of PBS was added to the wells along with 10 μL of MTT solution. The plate was incubated for 2 h in the dark. After this, 110 μL of solvent solution solubilizing agent was added and the plate was incubated for 15 minutes at ambient temperature with gentle agitation. The absorbance was read at 570 nm in a microplate reader. Another set of four wells was processed for harvesting the biofilm and determination of CFUs present by plating on solid media. For biofilm inhibitory studies, the wells were washed twice with 1×PBS and challenged with various concentrations of P128 or other antibiotic drugs and incubated for 24 h at 37° C. The contents of the well was aspirated out and discarded. The biofilm adhered to the wells was quantified by MTT assay as described above. The MBIC was defined as the minimum concentration of P128 or the drug showing no colour development. […] In each experiment, in addition to the combination MBIC, the MBIC of each drug was also determined individually. The fractional MBIC concentrations were determined by MTT dye method as described above. The FICI and synergy was also calculated in a similar manner.
In order to determine whether P128 could synergize with known anti-Staphylococcus drugs to inhibit S. aureus in biofilms. […] The assays were performed in a 96 well checkerboard format using various concentrations of P128 and one of the antibiotics.

S. aureus BK1 biofilms = experiment: Scanning electron microscopy of treated biofilms in microtitre plates; format: cell-based, Staphylococcus aureus; conditions: Gentamycin 50 μg/mL; P128 12.5 μg/mL (lowest concentration tested)
Procedure: MRSA strain BK1 or MW2 was used for studying biofilm eradication activity of P128 by SEM. For this, biofilms formed in microtitre plates or on the surface of catheters were treated with increasing concentrations of P128 or antibiotics and subjected to SEM. S. aureus BK1 or MW2 was revived on blood agar plates and the culture was grown overnight in TSB supplemented with 20% glucose. The overnight-grown culture was diluted 1:50 in TSB with 2% glucose to achieve OD600=˜0.1. 200 μL of the diluted culture was aliquoted into each well of the 96 well plate and incubated at 37° C. under static conditions for 18 h. After incubation the contents were aspirated, washed twice with 200 μL of PBS, and 100 μL of media+100 μL of drug were added to each well and incubated again at 37° C. for 18 h. The contents were aspirated, washed with 200 μL of PBS and allowed to dry at 37° C. for 15 min. The individual wells were cut out and biofilms visualized by SEM.

S. epidermidis = experiment: MIC and checkerboard synergy (broth microdilution) on planktonic cells; format: cell-based, Staphylococcus epidermidis; conditions: for MIC: Staphylococcus epidermidis
Procedure: as §1
S. epidermidis culture at a final cell number of 5×10^5 CFU/mL was added to wells of 96-well microtiter plates (precoated with 0.5% BSA), containing two-fold dilutions of P128 and either Daptomycin or Oxacillin in cation adjusted Mueller Hinton Broth (CAMHB). CAMHB was supplemented with 50 µg/mL Ca^++ for daptomycin assay. The plates were incubated at 37° C. for 24 h and the individual MICs and the combination MICs were read. The fractional inhibitory concentration index (FICI) was determined using the following equation: FICI=(MIC of drug A in the combination/MIC of drug A alone)+(MIC of drug B in the combination/MIC of drug B alone). The combination was considered to be synergistic when the FICI was ≤0.5; additive when FICI was between 0.5-1.0; indifferent when FICI was between 1-4 and antagonistic when FICI was ≥4. The experiments were performed in triplicate and repeated twice.

[1] = Table 4, S. aureus ATCC 29213 preformed biofilm, 6 h
[2] = Table 4, S. aureus ATCC 29213 preformed biofilm, 24 h
[3] = Table 4, S. aureus B9241 preformed biofilm, 6 h
[4] = Table 4, S. aureus B9241 preformed biofilm, 24 h
[5] = Table 4, S. aureus BK1 preformed biofilm, 6 h
[6] = Table 4, S. aureus BK1 preformed biofilm, 24 h

Cc1nnc(SCC2=C(C(=O)O)N3C(=O)[C@@H](NC(=O)Cn4cnnn4)[C@H]3SC2)s1 [Cephazolin, cephazolin]
MIC (drug alone) (S. aureus; S. aureus COL (MRSA)): >10 µg/mL
MIC (drug alone) (S. aureus; S. aureus MW2 (MRSA)): 5 µg/mL
MIC (drug alone) (S. aureus; S. aureus USA 300 (MRSA)): >10 µg/mL

CN(C)c1cc(NC(=O)CNC(C)(C)C)c(O)c2c1C[C@H]1C[C@H]3[C@H](N(C)C)C(O)=C(C(N)=O)C(=O)[C@@]3(O)C(O)=C1C2=O [Tigecycline]
MIC (S. aureus; 24 h, S. aureus BK18): 4 µg/mL

O=C(O)c1cn(C2CC2)c2cc(N3CCNCC3)c(F)cc2c1=O [Ciprofloxacin, ciprofloxacin, reference compound]
MBIC (individual) (S. aureus biofilms; [1]): >250 µg/mL
MBIC (individual) (S. aureus biofilms; [2]): 6.5 µg/mL
MBIC (individual) (S. aureus biofilms; [3]): >250 µg/mL
MBIC (individual) (S. aureus biofilms; [4]): 250 µg/mL
MBIC (individual) (S. aureus biofilms; [5]): >250 µg/mL
MBIC (individual) (S. aureus biofilms; [6]): >250 µg/mL

CC[C@H]1OC(=O)[C@H](C)[C@@H](O[C@H]2C[C@@](C)(OC)[C@@H](O)[C@H](C)O2)[C@H](C)[C@@H](O[C@@H]2O[C@H](C)C[C@H](N(C)C)[C@H]2O)[C@](C)(O)C[C@@H](C)CN(C)[C@H](C)[C@@H](O)[C@]1(C)O [Azithromycin, azithromycin]
MIC (S. aureus; 24 h, S. aureus BK18): 2 µg/mL

gentamycin [reference compound]
MBIC (individual) (S. aureus biofilms; [1]): >1000 µg/mL
MBIC (individual) (S. aureus biofilms; [2]): >1000 µg/mL
MBIC (individual) (S. aureus biofilms; [3]): >1000 µg/mL
MBIC (individual) (S. aureus biofilms; [4]): >1000 µg/mL
MBIC (individual) (S. aureus biofilms; [5]): >1000 µg/mL
MBIC (individual) (S. aureus biofilms; [6]): >1000 µg/mL
Reduction in MBIC in combination with P128 (S. aureus biofilms; gentamycin sensitive strains ATCC29213 and BK1): > 250 fold
Effect on biofilm by SEM (S. aureus BK1 biofilms): did not have any appreciable effect
MIC (drug alone) (S. aureus; S. aureus ATCC 29213 (MSSA)): 0.4 µg/mL
MIC (drug alone) (S. aureus; S. aureus B9241 (gentamycin and ciprofloxacin resistant)): 62 µg/mL
MIC (drug alone) (S. aureus; S. aureus BK1 (MRSA, ciprofloxacin resistant)): 0.4 µg/mL
MIC on resistant strains (S. aureus; planktonic S. aureus, strains resistant to the drug): 62 µg/mL
MIC on sensitive strains (S. aureus; planktonic S. aureus, strains sensitive to the drug): 0.4 µg/mL

Cc1onc(-c2ccccc2)c1C(=O)N[C@@H]1C(=O)N2[C@@H]1SC(C)(C)[C@@H]2C(=O)O [Oxacillin, oxacillin]
MIC (S. aureus; MRSA / USA300, 24 h, S. aureus USA 300 (MRSA)): > 16 µg/mL
MIC (S. aureus; MRSA, 24 h, MRSA strain BK22): > 16 µg/mL
MIC (S. aureus; MRSA, 24 h, S. aureus COL (MRSA)): > 16 µg/mL
MIC (S. aureus; MRSA, 24 h, S. aureus MW2 (MRSA)): > 16 µg/mL
MIC (drug alone) (S. epidermidis; S. epidermidis B9470): 16 µg/mL
MIC (drug alone) (S. epidermidis; S. epidermidis B9471): 16 µg/mL
MIC (S. epidermidis; S. epidermidis B9467, read-out: MIC (drug alone)): 8 µg/mL
MIC (S. epidermidis; S. epidermidis B9468, read-out: MIC (drug alone)): 0.12 µg/mL
MIC (S. epidermidis; S. epidermidis B9470, read-out: MIC (drug alone)): > 8 µg/mL
MIC (S. epidermidis; S. epidermidis B9471, read-out: MIC (drug alone)): > 8 µg/mL
MIC (S. epidermidis; S. epidermidis B9472, read-out: MIC (drug alone)): 16 µg/mL
MIC (S. epidermidis; S. epidermidis B9473, read-out: MIC (drug alone)): 16 µg/mL
MIC (S. epidermidis; S. epidermidis, read-out: MIC on resistant strains): 0.12 µg/mL
MIC (S. epidermidis; S. epidermidis, read-out: MIC on the sensitive strains): 16 µg/mL
